Data published in ChEMBL document CHEMBL1146202, “First report of plasmid-mediated qnrA1 in a ciprofloxacin-resistant Escherichia coli strain in Latin America” (2007).
In brackets after ≈: the same amount, converted by molar mass.

Assays:
Format in all cases: functional
Escherichia coli [1] = experiment: Antimicrobial activity against Escherichia coli qnrA1 producing urinary specimen isolate 13.52 by agar dilution method; conditions: Urine
Escherichia coli [2] = experiment: Antimicrobial activity against streptomycin-resistant Escherichia coli J53 transconjugant with qnrA1 producing urinary specimen isolate 13.52 by agar dilution method
Escherichia coli [3] = experiment: Antimicrobial activity against streptomycin-resistant Escherichia coli J53 by agar dilution method

Row | Molecule | MIC (Escherichia coli [1]) | MIC (Escherichia coli [2]; J53, Urine) | MIC (Escherichia coli [3]) | MIC (Escherichia coli [2]; Urine)
1 | CO/N=C(\C(=O)N[C@@H]1C(=O)N2C(C(=O)[O-])=C(C[N+]3(C)CCCC3)CS[C@H]12)c1csc(N)n1 [CEFEPIME] | 0.5 µg/mL (≈ 1.04 µM) | 0.5 µg/mL (≈ 1.04 µM) | 0.06 µg/mL (≈ 0.125 µM) | 
2 | CC(C)(O/N=C(\C(=O)N[C@@H]1C(=O)N2C(C(=O)[O-])=C(C[n+]3ccccc3)CS[C@H]12)c1csc(N)n1)C(=O)O [CEFTAZIDIME] | 64 µg/mL (≈ 117 µM) | 128 µg/mL (≈ 234 µM) | 0.25 µg/mL (≈ 0.457 µM) | 
3 | O=C(N[C@H](CO)[C@H](O)c1ccc([N+](=O)[O-])cc1)C(Cl)Cl [CHLORAMPHENICOL] | > 256 µg/mL | 48 µg/mL (≈ 149 µM) | 8 µg/mL (≈ 24.8 µM) | 
4 | COc1c(N2CCNC(C)C2)c(F)cc2c(=O)c(C(=O)O)cn(C3CC3)c12 (stereo not given) [GATIFLOXACIN] | 8 µg/mL (≈ 21.3 µM) | 1 µg/mL (≈ 2.66 µM) | 0.012 µg/mL (≈ 0.032 µM) | 
5 | C[C@@H](O)[C@H]1C(=O)N2C(C(=O)O)=C(S[C@@H]3CN[C@H](C(=O)N(C)C)C3)[C@H](C)[C@H]12 [MEROPENEM] | ≤ 0.025 µg/mL | ≤ 0.025 µg/mL | ≤ 0.025 µg/mL | 
6 | CO/N=C(\C(=O)N[C@@H]1C(=O)N2C(C(=O)O)=C(CSc3nc(=O)c(O)nn3C)CS[C@H]12)c1csc(N)n1 (stereo in doubt) [CEFTRIAXONE] | 8 µg/mL (≈ 14.4 µM) | 8 µg/mL (≈ 14.4 µM) | 0.047 µg/mL (≈ 0.0847 µM) | 
7 | CC1(C)S[C@@H]2[C@H](NC(=O)[C@H](N)c3ccccc3)C(=O)N2[C@H]1C(=O)O [AMPICILLIN] | > 256 µg/mL | > 256 µg/mL | 8 µg/mL (≈ 22.9 µM) | 
8 | NC[C@H]1O[C@H](O[C@H]2[C@H](O)[C@@H](O[C@H]3O[C@H](CO)[C@@H](O)[C@H](N)[C@H]3O)[C@H](N)C[C@@H]2N)[C@H](O)[C@@H](O)[C@@H]1O [KANAMYCIN] | 32 µg/mL (≈ 66 µM) | 128 µg/mL (≈ 264 µM) | 8 µg/mL (≈ 16.5 µM) | 
9 | CN[C@@H]1[C@H](O[C@H]2[C@H](O[C@H]3[C@H](O)[C@@H](O)[C@H](N=C(N)N)[C@@H](O)[C@@H]3N=C(N)N)O[C@@H](C)[C@]2(O)C=O)O[C@@H](CO)[C@H](O)[C@H]1O (stereo in doubt) [STREPTOMYCIN] | 192 µg/mL (≈ 330 µM) | > 1020 µg/mL | > 1020 µg/mL | 
10 | CCn1cc(C(=O)O)c(=O)c2ccc(C)nc21 [NALIDIXIC ACID] | 256 µg/mL (≈ 1100 µM) | 128 µg/mL (≈ 551 µM) | 4 µg/mL (≈ 17.2 µM) | 
11 | CO[C@@]1(NC(=O)Cc2cccs2)C(=O)N2C(C(=O)O)=C(COC(N)=O)CS[C@@H]21 [CEFOXITIN] | 32 µg/mL (≈ 74.9 µM) | 256 µg/mL (≈ 599 µM) | 8 µg/mL (≈ 18.7 µM) | 
12 | GENTAMICIN | 2 µg/mL |  | 0.125 µg/mL | 2 µg/mL
13 | CC(O)[C@H]1C(=O)N2C(C(=O)O)=C(SCCNC=N)C[C@H]12 (single isomer, unassigned) [IMIPENEM ANHYDROUS] | ≤ 0.025 µg/mL | ≤ 0.025 µg/mL | ≤ 0.025 µg/mL | 
14 | C[C@H]1COc2c(N3CCN(C)CC3)c(F)cc3c(=O)c(C(=O)O)cn1c23.C[C@H]1COc2c(N3CCN(C)CC3)c(F)cc3c(=O)c(C(=O)O)cn1c23.O [LEVOFLOXACIN] | 8 µg/mL | 1.5 µg/mL | 0.064 µg/mL | 
15 | NCC[C@H](O)C(=O)N[C@@H]1C[C@H](N)[C@@H](O[C@H]2O[C@H](CN)[C@@H](O)[C@H](O)[C@H]2O)[C@H](O)[C@H]1O[C@H]1O[C@H](CO)[C@@H](O)[C@H](N)[C@H]1O [AMIKACIN] | 4 µg/mL (≈ 6.83 µM) | 2 µg/mL (≈ 3.42 µM) | 2 µg/mL (≈ 3.42 µM) | 
